Experimental data as given in ChEMBL document CHEMBL1212812, “Multi-target spectral moment QSAR versus ANN for antiparasitic drugs against different parasite species” (Bioorg Med Chem, 2010).
Each block holds one molecule with its values, some of them ahead of it.

How the values were obtained:
Toxoplasma gondii = assay: Antimicrobial activity against Toxoplasma gondii; assay type: functional, organism-based
Cryptosporidium parvum = assay: Antimicrobial activity against Cryptosporidium parvum; assay type: functional, organism-based
Leishmania amazonensis = assay: Antimicrobial activity against Leishmania amazonensis; assay type: functional, organism-based
Trypanosoma cruzi = assay: Antimicrobial activity against Trypanosoma cruzi; assay type: functional, organism-based; details: Trypanosoma cruzi
Leishmania major = assay: Antimicrobial activity against Leishmania major; assay type: functional, organism-based
[1] = test system: Trypanosoma brucei rhodesiense; assay: Antimicrobial activity against Trypanosoma brucei rhodesiense; assay type: functional, organism-based
[2] = test system: Trypanosoma brucei brucei; assay: Antimicrobial activity against Trypanosoma brucei brucei; assay type: functional, organism-based
Leishmania = assay: Antimicrobial activity against Leishmania; assay type: functional
Plasmodium falciparum = assay: Antimicrobial activity against Plasmodium falciparum; assay type: functional, organism-based
Trypanosoma brucei = assay: Antimicrobial activity against Trypanosoma brucei; assay type: functional, organism-based
Leishmania mexicana = assay: Antimicrobial activity against Leishmania mexicana; assay type: functional, organism-based
Leishmania donovani = assay: Antimicrobial activity against Leishmania donovani; assay type: functional, organism-based

IC50 (Cryptosporidium parvum): 30000 nM
SMILES: Nc1nc(N)c2c(n1)-c1ccsc1CC2

IC50 (Cryptosporidium parvum): 3000 nM
SMILES: COc1cc(CN2CCc3nc(N)nc(N)c3C2)c(Br)c(OC)c1OC

IC50 (Leishmania amazonensis): 1000 nM
IC50 (Trypanosoma cruzi): 1000 nM
IC50 (Leishmania major): 12000 nM
SMILES: C[C@]12CC[C@H](O)C[C@@H]1CC[C@@H]1[C@@H]2CC[C@@]2(C)[C@H]1CC[C@@H]2[C@@](C)(O)c1ccncc1

IC50 (Trypanosoma cruzi): 23000 nM
IC50 (Leishmania major): 13000 nM
SMILES: C[C@]12CC[C@H](O)C[C@@H]1CC[C@@H]1[C@@H]2CC[C@@]2(C)[C@H]1CC[C@@H]2[C@@](C)(O)C1CCCNC1 (some centres undefined)

IC50 (Trypanosoma cruzi): 65000 nM
IC50 (Leishmania major): 54000 nM
SMILES: CCC(=O)N1CCCCC1[C@](C)(O)[C@H]1CC[C@H]2[C@@H]3CC[C@H]4C[C@@H](O)CC[C@]4(C)[C@H]3CC[C@@]21C (some centres undefined)

IC50 (Leishmania amazonensis): 3000 nM
IC50 (Trypanosoma cruzi): 1000 nM
IC50 (Leishmania major): 100000 nM
SMILES: C[C@]12CC[C@H](O)C[C@@H]1CC[C@@H]1[C@@H]2CC[C@@]2(C)[C@H]1CC[C@@H]2[C@@](C)(O)c1ccccn1

IC50 (Trypanosoma cruzi): 50000 nM
IC50 (Leishmania major): 100000 nM
SMILES: C[C@]12CC[C@H](O)C[C@@H]1CC[C@@H]1[C@@H]2CC[C@@]2(C)[C@H]1CC[C@@H]2[C@@](C)(O)c1cccnc1

IC50 (Cryptosporidium parvum): 5000 nM
SMILES: COc1cc(CCc2cc3c(N)nc(N)nc3s2)c(Br)c(OC)c1OC

IC50 (Leishmania): 100000 nM
IC50 (Plasmodium falciparum): 1000 nM
SMILES: CN1CCN(C)C1c1ccc(N2CCN(c3ccc(C4N(C)CCN4C)cc3)CC2)cc1

IC50 [1]: 1000 nM
SMILES: O=C(NCCCN1CCN(C(=O)OCc2ccccc2)C1)OCc1ccccc1

IC50 (Cryptosporidium parvum): 2000 nM
SMILES: COc1cc(Cc2sc3nc(N)nc(N)c3c2C)cc(OC)c1OC

IC50 (Trypanosoma brucei): 32000 nM
IC50 (Plasmodium falciparum): 32000 nM
SMILES: Cn1c2nc3ccc(C#N)cc3c-2cc2ccccc21

IC50 (Cryptosporidium parvum): 1000 nM
SMILES: COc1ccc(OC)c(-c2sc3nc(N)nc(N)c3c2C)c1

IC50 (Trypanosoma brucei): 1000 nM
SMILES: CSc1ccc2c(c1)cc1c3ccccc3nc-1n2C

IC50 (Trypanosoma brucei): 1000 nM
SMILES: Cn1c2nc3ccccc3c-2cc2cc([N+](=O)[O-])ccc21

IC50 (Cryptosporidium parvum): 1000 nM
SMILES: COc1ccc(OC)c(NCc2ccc3nc(N)nc(N)c3n2)c1

IC50 (Cryptosporidium parvum): 9000 nM
SMILES: CCC1CCc2nc(N)nc(N)c2C1 (centres undefined)

IC50 (Cryptosporidium parvum): 2000 nM
SMILES: Nc1nc(N)c2c(n1)CCC(c1ccccc1)C2 (centres undefined)

IC50 [1]: 1000 nM
IC50 [2]: 1000 nM
SMILES: O=[N+]([O-])c1ccc(/C=N/O)o1 [NIFUROXIME]

IC50 [1]: 2000 nM
IC50 [2]: 6000 nM
SMILES: CC1CS(=O)(=O)CCN1/N=C/c1ccc([N+](=O)[O-])o1 (centres undefined) [NIFURTIMOX]

IC50 (Leishmania mexicana): 1000 nM
IC50 (Leishmania donovani): 1000 nM
SMILES: N=C(N)c1ccc(OCCCCCOc2ccc(C(=N)N)cc2)cc1 [PENTAMIDINE]

IC50 (Leishmania mexicana): 10000 nM
SMILES: N=C(N)c1ccc(OCCCOc2ccc(C(=N)N)cc2)cc1 [PROPAMIDINE]

IC50 (Leishmania mexicana): 9000 nM
SMILES: N=C(N)c1ccc(/C=C/c2ccc(C(=N)N)cc2)cc1 [STILBAMIDINE]

The remaining lines, values behind:

SMILES: c1ccc(Sc2cc3ccccc3[nH]2)cc1
IC50 (Toxoplasma gondii; Toxoplasma gondii): 1000 nM

SMILES: C[C@]12CC[C@H](O)C[C@@H]1CC[C@@H]1[C@@H]2CC[C@@]2(C)[C@H]1CC[C@@H]2[C@@](C)(O)c1ccncc1Cl
IC50 (Leishmania amazonensis): 1000 nM
IC50 (Trypanosoma cruzi): 1000 nM
IC50 (Leishmania major): 8000 nM

SMILES: COc1cc(Cc2sc3nc(N)nc(N)c3c2C)c(Br)c(OC)c1OC
IC50 (Cryptosporidium parvum): 2000 nM

SMILES: N/N=C/c1ccc([N+](=O)[O-])o1
IC50 [1]: 2000 nM
IC50 [2]: 14000 nM

SMILES: COc1ccc2[nH]c3nc4ccccc4c-3cc2c1
IC50 (Trypanosoma brucei): 32000 nM
IC50 (Plasmodium falciparum): 32000 nM

SMILES: COc1cccc2nc(N)nc(N)c12
IC50 (Cryptosporidium parvum): 3000 nM

SMILES: Cn1c2nc3ccccc3c-2cc2ccc(Cl)cc21
IC50 (Trypanosoma cruzi): 17000 nM
IC50 (Trypanosoma brucei): 9000 nM
IC50 (Plasmodium falciparum): 5000 nM

SMILES: Nc1nc(N)c2c(n1)CCC(Cc1ccsc1)C2 (centres undefined)
IC50 (Cryptosporidium parvum): 1000 nM

SMILES: N[C@@H]1[C@H]2CN(c3nc4c(cc3F)c(=O)c(C(=O)O)cn4-c3ccc(F)cc3F)C[C@@H]12 (stereo in doubt; form 1) [TROVAFLOXACIN]
IC50 (Toxoplasma gondii; Toxoplasma gondii): 3000 nM

SMILES: N[C@@H]1[C@H]2CN(c3nc4c(cc3F)c(=O)c(C(=O)O)cn4-c3ccc(F)cc3F)C[C@@H]12 (stereo in doubt; form 2) [TROVAFLOXACIN]
IC50 (Toxoplasma gondii): 2000 nM

SMILES: C=CC(C)(C)c1cc(/C=C/C(=O)c2ccc(O)cc2)c(OC)cc1O [LICOAGROCHACONE A]
IC50 (Leishmania major): 14000 nM

SMILES: COc1cc(Cc2cnc(N)nc2N)cc(OC)c1OC [TRIMETHOPRIM]
IC50 (Cryptosporidium parvum): 4000 nM

SMILES: C[C@@H]1[C@@H]2[C@@H](N)[C@@H]2CN1c1nc2c(cc1F)c(=O)c(C(=O)O)cn2-c1ccc(F)cc1F [TROVAFLOXACIN1]
IC50 (Toxoplasma gondii; Toxoplasma gondii): 1000 nM

SMILES: CN[C@H]1[C@@H]2CN(c3nc4c(cc3F)c(=O)c(C(=O)O)cn4-c3ccc(F)cc3F)C[C@@H]21 [TROVAFLOXACIN2]
IC50 (Toxoplasma gondii; Toxoplasma gondii): 1000 nM

SMILES: Cc1c(F)c(N2C[C@@H]3[C@@H](N)[C@@H]3C2)nc2c1c(=O)c(C(=O)O)cn2-c1ccc(F)cc1F [TROVAFLOXACIN3]
IC50 (Toxoplasma gondii; Toxoplasma gondii): 1000 nM

SMILES: N[C@@H]1[C@H]2CN(c3nc4c(cc3F)c(=O)c(C(=O)O)cn4C3CC3)C[C@@H]12 [TROVAFLOXACIN4]
IC50 (Toxoplasma gondii; Toxoplasma gondii): 2000 nM

SMILES: N[C@@H]1[C@H]2CN(c3cc4c(cc3F)c(=O)c(C(=O)O)cn4-c3ccc(F)cc3F)C[C@@H]12 [TROVAFLOXACIN6]
IC50 (Toxoplasma gondii; Toxoplasma gondii): 3000 nM

SMILES: C[C@@H]1[C@@H]2[C@@H](CN)[C@@H]2CN1c1nc2c(cc1F)c(=O)c(C(=O)O)cn2-c1ccc(F)cc1F [TROVAFLOXACIN7]
IC50 (Toxoplasma gondii; Toxoplasma gondii): 3000 nM

SMILES: NC12CC1CN(c1nc3c(cc1F)c(=O)c(C(=O)O)cn3-c1ccc(F)cc1F)C2 (centres undefined) [TROVAFLOXACIN8]
IC50 (Toxoplasma gondii; Toxoplasma gondii): 7000 nM

SMILES: NC[C@@H]1[C@H]2CN(c3nc4c(cc3F)c(=O)c(C(=O)O)cn4C3CC3)C[C@@H]12 [TROVAFLOXACIN9]
IC50 (Toxoplasma gondii; Toxoplasma gondii): 12000 nM

SMILES: NCC12CC1CN(c1nc3c(cc1F)c(=O)c(C(=O)O)cn3C1CC1)C2 (centres undefined) [TROVAFLOXACIN10]
IC50 (Toxoplasma gondii; Toxoplasma gondii): 12000 nM

SMILES: NC[C@@H]1[C@H]2CN(c3nc4c(cc3F)c(=O)c(C(=O)O)cn4-c3ccc(F)cc3F)C[C@@H]12 [TROVAFLOXACIN11]
IC50 (Toxoplasma gondii; Toxoplasma gondii): 9000 nM

SMILES: C[C@H]1[C@H](C)CC[C@]2(C(=O)O)CC[C@]3(C)C(=CC[C@@H]4[C@@]5(C)CC[C@H](O)C(C)(C)[C@@H]5CC[C@]43C)[C@H]12 [URSOLIC ACID]
IC50 (Toxoplasma gondii; Toxoplasma gondii): 1000 nM
